Results taken from patent US20040116348A1, “Polymer-linker-drug conjugates for targeted drug delivery” (priority 2002, published 2004).

Key:
[1] = system: PC-3 (a human prostate tumor cell line); assay: MTT cytotoxicity, PC-3; assay type: cell-based
Experimental: (§1) Open circles in FIGS. 6A-F represent free doxorubicin and closed circles represent LIG-doxorubicin.
(§2) Cell survival was assayed using an indirect colorimetric […] (MTT assay, e.g., see Alley et al., Cancer Res. 48:589, 1988). The tetrazolium salt MTT is metabolized by NAD-dependent dehydrogenase to form a colored reaction product and the amount of dye formed directly correlates with the number of viable cells. The formula for calculating % survival is given by:
(§3) %survival=(Ti−Tz)/(C−Tz) if Ti≧Tz or
(§4) %survival=(Ti−Tz)/Tz if Ti<Tz
(§5) where Ti=Net MTT reading of test growth in the presence of drugs; Tz=Net MTT reading at time zero with respect to the drug test; and C=Net MTT reading of control growth (see Grever et al., Seminars in Oncology, 19:622, 1992 and Boyd and Paull, Drug Development Research 34:91, 1995).

[2] = system: HT-1080 (a human fibrosarcoma line); assay: MTT cytotoxicity, HT-1080; assay type: cell-based
Experimental: as §1, §2, §3, §4, §5
(§6) The cytotoxicity of methotrexate and various peptidyl-methotrexates were compared in order to assess bulk tolerance. The peptidyl-methotrexates were prepared by linking short peptides of three to four amino acids to methotrexate. […] Methotrexate was covalently coupled to the N-terminal end of the peptides via the γ-carboxyl of its glutamic acid (Nagy et al., Proc. Nat. Acad. Sci. USA 90:6373, 1993). […] Cytotoxicity was assayed as described above in Example 4. […] Example 8 describes the synthesis of certain dextran-oligopeptide-methotrexate conjugates.

[3] = system: MGH-U1 (a human bladder cell line); assay: MTT cytotoxicity, MGH-U1; assay type: cell-based
Experimental: as §1, §2, §3, §4, §5

[4] = system: U-87 (a human glioblastoma cell line); assay: MTT cytotoxicity, U-87; assay type: cell-based
Experimental: as §1, §2, §3, §4, §5

[5] = system: KK-47 (a human bladder tumor cell line); assay: MTT cytotoxicity, KK-47; assay type: cell-based
Experimental: as §1, §2, §3, §4, §5

[6] = system: BT-20 (a human breast carcinoma line); assay: MTT cytotoxicity, BT-20; assay type: cell-based
Experimental: as §1, §2, §3, §4, §5, §6

human tumor cell lines = assay: MTT cytotoxicity, overall statement over the panel of human tumor cell lines; assay type: cell-based; settings: three human tumor cell lines
Experimental: as §2, with “by: […]” for “by:”

[7] = system: RT-112 (human urinary bladder transitional carcinoma line); assay: MTT cytotoxicity, RT-112; assay type: cell-based
Experimental: as §2, §3, §4, §5
The cytotoxicity of methotrexate and various peptidyl-methotrexates were compared in order to assess bulk tolerance. The peptidyl-methotrexates were prepared by linking short peptides of three to four amino acids to methotrexate. The peptides were chosen to represent appropriate cleavage fragments from the MMP-2 sensitive substrate peptide IPVGLIG that was characterized in Examples 1-2. Methotrexate was covalently coupled to the N-terminal end of the peptides via the γ-carboxyl of its glutamic acid (Nagy et al., Proc. Nat. Acad. Sci. USA 90:6373, 1993). […]

HT-1080 tumors = assay: In vivo anti-tumor efficacy in SCID mice bearing HT-1080 tumors; settings: end of study; 50 mg methotrexate/kg i.p. on day 1, 8 and 15
Experimental: Each group included three mice.
The dosage chosen for these experiments was based on the reported optimum dosage of free methotrexate for treating tumor-bearing mice (Burger et al., Int. J. Cancer 92:718, 2001). Three weekly injections at 50 mg of methotrexate/kg of body weight was half the maximum tolerated dosage. In another set of experiments the dosage was increased to three weekly injections of 100 mg/kg, or to injections of 50 mg/kg twice per week.

[8] = Body weight change as indicator of toxic side effects in SCID mice bearing HT-1080 tumors; settings: 50 mg methotrexate/kg i.p. on day 1, 8 and 15
Experimental: After 7-10 days, tumors of size 150-300 mm^3 were established on each mouse. […] Weight and tumor size were monitored three times a week. Tumor size was calculated as width^2×length×0.52. […] As a second control, another group of mice were injected with phosphate buffered saline. Each group included three mice.

Row | SMILES | cytotoxicity (% survival, MTT) [1] | cytotoxicity (% survival, MTT) [2] | cytotoxicity (% survival, MTT) [3] | cytotoxicity (% survival, MTT) [4] | cytotoxicity (% survival, MTT) [5] | cytotoxicity (% survival, MTT) [6] | cytotoxicity relative to free methotrexate (human tumor cell lines) | cytotoxicity (% survival, MTT) [7] | tumor growth suppression compared to saline control (HT-1080 tumors) [%] | body weight drop compared to initial weight [8] [%]
1 | CC[C@H](C)[C@H](NC(=O)[C@@H](N)CC(C)C)C(=O)NCC(=O)N[C@H]1C[C@H](O[C@H]2C[C@](O)(C(=O)CO)Cc3c(O)c4c(c(O)c32)C(=O)c2c(OC)cccc2C4=O)O[C@@H](C)[C@H]1O [LIG-doxorubicin] | cytotoxic | cytotoxic | cytotoxic | cytotoxic | cytotoxic | cytotoxic | – | – | – | –
2 | CC(C)[C@H](NC(=O)[C@@H]1CCCN1C(=O)CC[C@H](NC(=O)c1ccc(N(C)Cc2cnc3nc(N)nc(N)c3n2)cc1)C(=O)O)C(=O)NCC(=O)O [methotrexate-PVG] | – | cytotoxic | – | – | – | cytotoxic | comparable | cytotoxic | – | –
3 | CN(Cc1cnc2nc(N)nc(N)c2n1)c1ccc(C(=O)N[C@@H](CCC(=O)O)C(=O)O)cc1 [methotrexate] | – | – | – | – | – | – | – | – | 48 | 13
